Experimental data published in patent US8685970B2, “Quinolines and related analogs as sirtuin modulators” (GlaxoSmithKline, LLC, priority 2008, dated 2014).

molecular target: T1, SIRT1 (Homo sapiens, UniProt Q96EB6); test: Mass spectrometry based SIRT1 deacetylation assay (activation); assay type: biochemical; details: 10 nM SIRT1, 0.5 μM peptide substrate, 120 μM βNAD+, 25 min at 25° C.
T1 sequence (Q96EB6 1-747): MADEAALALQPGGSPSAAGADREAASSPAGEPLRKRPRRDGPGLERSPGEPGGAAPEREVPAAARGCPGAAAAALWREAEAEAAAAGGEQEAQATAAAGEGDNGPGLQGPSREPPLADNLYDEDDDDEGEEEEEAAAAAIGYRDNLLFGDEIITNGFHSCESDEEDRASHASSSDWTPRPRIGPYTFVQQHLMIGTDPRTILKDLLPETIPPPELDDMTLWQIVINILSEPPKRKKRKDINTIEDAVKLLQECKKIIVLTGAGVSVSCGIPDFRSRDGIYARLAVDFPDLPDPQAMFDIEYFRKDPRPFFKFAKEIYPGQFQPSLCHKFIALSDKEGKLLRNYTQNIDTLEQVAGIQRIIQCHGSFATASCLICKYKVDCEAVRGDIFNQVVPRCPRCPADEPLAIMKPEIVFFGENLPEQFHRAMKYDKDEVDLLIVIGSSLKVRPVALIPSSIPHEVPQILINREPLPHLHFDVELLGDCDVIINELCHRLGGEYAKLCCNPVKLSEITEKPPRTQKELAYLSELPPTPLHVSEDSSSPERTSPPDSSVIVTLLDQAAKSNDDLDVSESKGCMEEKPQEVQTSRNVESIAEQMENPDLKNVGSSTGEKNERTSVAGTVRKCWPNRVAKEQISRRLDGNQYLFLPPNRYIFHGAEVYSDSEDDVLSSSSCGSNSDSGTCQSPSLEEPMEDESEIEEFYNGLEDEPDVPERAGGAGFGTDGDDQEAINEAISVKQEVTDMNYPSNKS
Description: A mass spectrometry based assay was used to identify modulators of SIRT1 activity. The mass spectrometry based assay utilizes a peptide having 20 amino acid residues as follows: Ac-EE-K (biotin)-GQSTSSHSK (Ac)N1eSTEG-K(5TMR)-EE-NH2 (SEQ ID NO: 1) wherein K(Ac) is an acetylated lysine residue and Nle is a norleucine. The peptide is labeled with the fluorophore 5TMR (excitation 540 nm/emission 580 nm) at the C-terminus. The sequence of the peptide substrate is based on p53 with several modifications. In addition, the methionine residue naturally present in the sequence was replaced with the norleucine because the methionine may be susceptible to oxidation during synthesis and purification.
The mass spectrometry assay is conducted as follows: 0.5 μM peptide substrate and 120 μM βNAD^+ is incubated with 10 nM SIRT1 for 25 minutes at 25° C. in a reaction buffer (50 mM Tris-acetate pH 8, 137 mM NaCl, 2.7 mM KCl, 1 mM MgCl2, 5 mM DTT, 0.05% BSA). Test compounds may be added to the reaction as described above. The SirT1 gene is cloned into a T7-promoter containing vector and transformed into BL21(DE3). After the 25 minute incubation with SIRT1, 10 μL of 10% formic acid is added to stop the reaction. Reactions are sealed and frozen for later mass spec analysis. Determination of the mass of the substrate peptide allows for precise determination of the degree of acetylation (i.e. starting material) as compared to deacetylated peptide (product).
A control for inhibition of sirtuin activity is conducted by adding 1 μL of 500 mM nicotinamide as a negative control at the start of the reaction (e.g., permits determination of maximum sirtuin inhibition). A control for activation of sirtuin activity is conducted using 10 nM of sirtuin protein, with 1 μL of DMSO in place of compound, to determine the amount of deacetylation of the substrate at a given timepoint within the linear range of the assay. This timepoint is the same as that used for test compounds and, within the linear range, the endpoint represents a change in velocity.
For the above assay, SIRT1 protein was expressed and purified as follows. The SirT1 gene was cloned into a T7-promoter containing vector and transformed into BL21(DE3). The protein was expressed by induction with 1 mM IPTG as an N-terminal His-tag fusion protein at 18° C. overnight and harvested at 30,000×g. Cells were lysed with lysozyme in lysis buffer (50 mM Tris-HCl, 2 mM Tris[2-carboxyethyl]phosphine (TCEP), 10 μM ZnCl2, 200 mM NaCl) and further treated with sonication for 10 min for complete lysis. The protein was purified over a Ni-NTA column (Amersham) and fractions containing pure protein were pooled, concentrated and run over a sizing column (Sephadex S200 26/60 global). The peak containing soluble protein was collected and run on an Ion-exchange column (MonoQ). Gradient elution (200 mM-500 mM NaCl) yielded pure protein. This protein was concentrated and dialyzed against dialysis buffer (20 mM Tris-HCl, 2 mM TCEP) overnight. The protein was aliquoted and frozen at −80° C. until further use.
Sirtuin modulating compounds that activated SIRT1 were identified using the assay described above and are shown below in Table 1. The EC1.5 values represent the concentration of test compounds that result in 150% activation of SIRT1. The EC1.5 values for the activating compounds are represented by A (EC1.5<1.0 uM), B (EC1.5 1-25 uM), C (EC1.5>25 uM). The percent maximum fold activation is represented by A (Fold activation >200%) or B (Fold Activation <200%). “NT” indicates the compound was not tested in a particular assay.

Compound | % Fold Act. (percent maximum fold activation) | EC1.5 (concentration of test compound that results in 150% activation of SIRT1)
O=C(Nc1cccc(CN2CCOCC2)c1)c1cccc2ccc(-c3cccc(C(F)F)c3)nc12 [Compound 286] | A (Fold activation >200%) | A (EC1.5<1.0 uM)
Cc1cc(NC(=O)c2cccc3ccc(-c4cccc(C(F)(F)F)c4)nc23)n(C)n1 [Compound 51] | A (Fold activation >200%) | B (EC1.5 1-25 uM)
O=C(Nc1cccc(CN2CCCC2)n1)c1cccc2ccc(-c3cccc(C(F)F)c3)nc12 [Compound 288] | A (Fold activation >200%) | A (EC1.5<1.0 uM)
N#Cc1cccc(-c2ccc3cccc(NC(=O)c4cscn4)c3n2)c1 [Compound 80] | – | C (EC1.5>25 uM)
O=S(=O)(Nc1cccc2ccc(-c3cccc(C(F)(F)F)c3)nc12)c1ccccn1 [Compound 273] | – | C (EC1.5>25 uM)
O=C(Nc1ncnc2ccc(-c3cccc(OC(F)(F)F)c3)nc12)c1cncs1 [Compound 309] | A (Fold activation >200%) | B (EC1.5 1-25 uM)
O=C(Nc1ccccn1)c1cccc2cnc(-c3cccc(N4CCOCC4)c3)nc12 [Compound 315] | A (Fold activation >200%) | A (EC1.5<1.0 uM)
Cc1cncc(-c2ccc3cccc(NC(=O)c4cscn4)c3n2)c1 [Compound 214] | A (Fold activation >200%) | A (EC1.5<1.0 uM)
Fc1ccc(C(F)(F)F)cc1-c1ccc2cccc(NCc3cccnc3)c2n1 [Compound 167] | – | C (EC1.5>25 uM)
O=C(Nc1ccc(CN2CCOCC2)nc1)c1cccc2ccc(-c3cccc(C(F)(F)F)c3)nc12 [Compound 291] | A (Fold activation >200%) | A (EC1.5<1.0 uM)
O=C(Nc1cccc2ccc(-c3cc(F)cc(C(F)(F)F)c3)nc12)c1ccncc1 [Compound 160] | – | C (EC1.5>25 uM)
CC(C)(C)c1nnc(NC(=O)c2cccc3ccc(-c4cccc(C(F)(F)F)c4)nc23)s1 [Compound 44] | B (Fold Activation <200%) | A (EC1.5<1.0 uM)

Continued, values first:

% Fold Act. (percent maximum fold activation) | EC1.5 (concentration of test compound that results in 150% activation of SIRT1) | Compound
– | C (EC1.5>25 uM) | O=C(Nc1ccccn1)c1cccc2ncc(-c3cccc(OC(F)(F)F)c3)nc12 [Compound 127]
– | C (EC1.5>25 uM) | Cc1cc(-c2ccc3cccc(C(=O)Nc4cccnc4)c3n2)no1 [Compound 68]
– | C (EC1.5>25 uM) | O=C(Nc1ccc(F)cn1)c1cccc2ccc(-c3cccnc3)nc12 [Compound 265]
B (Fold Activation <200%) | A (EC1.5<1.0 uM) | O=C(Nc1cccc2ccc(-c3cccc(OC(F)(F)F)c3)nc12)c1cnccn1 [Compound 8]
B (Fold Activation <200%) | A (EC1.5<1.0 uM) | Cc1cnc(NC(=O)c2cccc3ccc(-c4cccc(C(F)(F)F)c4)nc23)s1 [Compound 42]
A (Fold activation >200%) | A (EC1.5<1.0 uM) | Cc1ccc(-c2ccc3cccc(NC(=O)c4cscn4)c3n2)cn1 [Compound 198]
